Assay results taken from paper PMC10667816, “A Cell‐Penetrant Peptide Disrupting the Transcription Factor CP2c Complexes Induces Cancer‐Specific Synthetic Lethality” (Advanced Science, 2023).
pIC50: −log10 of the molar value. Where a SMILES comes first, the peptide text is derived from it.

Legend:
[1] = system: CP2c transcriptional targets (FN1, OCT4, and SNAI2) in HepG2 cells; assay: RT‐qPCR transcription inhibition of CP2c targets; assay type: cell-based, human; conditions: summary for both cell lines, 36 h after treatment; read-out: average TI50 (50% transcriptional inhibition) values of the three CP2c targets
Protocol: To quantify mRNA expression of the gene of interest, cells were harvested, and total cellular RNA was extracted using Qiazol reagent (Qiagen, 79306). Purified RNA was dissolved in Diethyl pyrocarbonate (DEPC) water. Reverse transcription was performed using a High‐Capacity cDNA reverse transcription kit (Toyobo, FSQ‐201) in the presence of 400 ng of total RNA and 10 pmol random hexamer. PCR was performed using rTaq Plus 5X PCR master mix (Elpis‐Biotech, EBT‐1319) and the SYBR green Master Mix Kit. Amplifications were performed using a Light cycler 1.5 real‐time PCR system.^[ [43] ^] The relative mRNA expression levels were determined using the 2(−ΔCt) method, with GAPDH transcript levels serving as an internal control. Errors were calculated from at least two independent experiments. Oligonucleotide primers used in RT–qPCR are listed in Table S2 (Supporting Information).

[2] = system: murine erythroleukemia (MEL) cells; assay: Erythroid differentiation of MEL cells; assay type: cell-based; conditions: HMBA‐induced MEL cells, supplementation to the culture
Protocol: Information of the cell lines is listed in Table S1 (Supporting Information), including their origin and culture conditions. All cell lines were cultured at 37 °C, 5% CO2 incubator. MDA‐MB‐231 (LM1), HepG2, Hep3B, and HCT116 cell lines were authenticated with short tandem repeat markers based on ATCC information. All cell lines tested negative for mycoplasma contamination. Transient downregulation of the gene of interest was conducted by siRNA transfection using Lipofectamine 2000 (Thermo Fisher, 11668019) according to the manufacturer's instructions. Information about siRNAs is provided in Table S2 (Supporting Information). Stable cell lines were established by transfecting cells using Effectene reagent (Qiagen, 301425), followed by selection of cell clones in the presence of 1 µg mL^−1 puromycin (Sigma–Aldrich, P8833). The establishment of cell lines was confirmed by WB or RT‐qPCR. For doxycycline‐inducible gene expression regulation, cell lines were incubated in the presence of 1 µg mL^−1 doxycycline (Sigma–Aldrich, D9891) for 2–3 days. To promote sphere formation of the cell lines, each well of the tissue culture dish was coated with 10% poly 2‐hydroxyethyl methacrylate (polyHEMA). An appropriate number of cells per well were seeded in serum‐free DMEM/F12 (HyClone, SH30023.01) supplemented with B27, 20 ng mL^−1 bFGF, and 20 ng mL^−1 EGF. For erythroid terminal differentiation experiments, differentiation was assessed by hemoglobin staining using a 0.2% (w/v) tetramethylbenzidine solution (Sigma–Aldrich, T0440) in 0.6% hydrogen peroxide, 3% acetic acid for 10 min in dark condition. Benzidine‐positive or negative cell numbers were counted under the inverted microscope BX50 (Olympus) at 200 × magnification. […] After each synchronization, cells were fixed at 4‐h intervals for 24 h with ACP52C treatment, and the cell cycle was analyzed by Propidium Iodide (PI) staining or intracellular protein was analyzed by immunofluorescence. […] This development period was repeated four times for one round, after which GI50 concentrations were re‐assessed in each resistant cell line. […]

[3] = system: ACP52C‐resistant cancer cell lines; assay: Growth inhibition of resistant cells with CASP2 inhibition; assay type: cell-based, human; conditions: combined with CASP2 inhibiting peptide Ac‐VDVAD‐CHO (10 µM)
Protocol: Various cell lines were treated with peptides, either alone or in combination with the CASP2 inhibitor (Ac‐VDVAD‐CHO; Enzo ALX‐260‐058‐M001) at various concentrations for 4 days. Cell viability was assessed on day 2 or day 4 using MTT (3‐(4,5‐dimethylthiazol‐2‐yl)‐2,5‐diphenyltetrazolium bromide; Sigma–Aldrich, M2128) assay. In brief, fresh cells were seeded in flat‐bottomed 96‐well tissue culture plates at appropriate concentrations for each cell line per well using complete culture medium. The cells were incubated in 100 µL of culture medium containing various concentration of chemicals or peptides at 37 °C for 0 to 96 h. A solution of MTT (5 mg mL^−1) was added to the culture medium, and the cells were further incubated at 37 °C for an additional 3 h. The MTT medium was then removed, and the formazan crystals were dissolved in DMSO (100 µL per well). The formazan concentration was measured spectrophotometrically at 490 nm using a Varioskan Flash Spectral Scanning Multimode Reader (Thermo Scientific Korea). Nonlinear regression curves for growth inhibition and GI50 values for each cell line were estimated from independent replicates using the Prism (version 6) software (GraphPad Software Inc.)

[4] = molecular target: T1, CP2c (Mus musculus, UniProt Q9ERA0); assay: DNA‐IP assay of CP2c DNA binding; assay type: biochemical; conditions: 0–3 µM peptide, concentration‐dependent
T1 construct: extracts from iMEL cells (day 2); endogenous in cells; host or cells: nuclear extract of HMBA-induced MEL (iMEL) cells, day 2
T1 sequence (Q9ERA0 whole entry): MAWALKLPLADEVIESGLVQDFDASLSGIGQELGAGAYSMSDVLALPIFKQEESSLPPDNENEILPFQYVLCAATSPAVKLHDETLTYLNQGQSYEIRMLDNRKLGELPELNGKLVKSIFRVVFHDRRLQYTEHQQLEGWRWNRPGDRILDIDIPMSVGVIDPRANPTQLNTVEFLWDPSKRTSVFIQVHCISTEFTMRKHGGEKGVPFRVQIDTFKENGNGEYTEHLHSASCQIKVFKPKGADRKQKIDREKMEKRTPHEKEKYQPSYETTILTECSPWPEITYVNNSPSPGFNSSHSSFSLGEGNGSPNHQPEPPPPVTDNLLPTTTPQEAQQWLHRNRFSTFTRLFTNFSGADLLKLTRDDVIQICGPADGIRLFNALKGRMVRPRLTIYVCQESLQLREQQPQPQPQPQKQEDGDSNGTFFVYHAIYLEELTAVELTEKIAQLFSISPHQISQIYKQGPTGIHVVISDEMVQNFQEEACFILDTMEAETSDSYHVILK
Protocol: DNA‐IP assay was performed essentially as described previously.^[ [14] ^] Each of the oligonucleotides was mixed and annealed in the TEN buffer. For the radio‐labeling of the DNA probe, the annealed DNA was incubated with a mixture of dATP, dGTP, dTTP, [α^32P]‐dCTP, and Klenow enzyme in reaction buffer (5 mM NaCl, 1 mM Tris HCl, 1 mM MgCl2, and 0.1 mM DTT) for 30 min at 25 °C, and stopped by incubation with EDTA (10 mM final) for 20 min at 75 °C. The radio‐labeled DNA probe was purified by applying the reaction mixture to ProbeQuant G‐50 micro columns (GE healthcare, GE28‐9034‐08). Whole extracts prepared from transfecting 293T cells or purified GST fused CP2c proteins (wildtype and point mutants) were incubated with a [α^32P]‐labeled DNA probe in binding buffer (4% glycerol, 10 mM Tris‐HCl, pH 7.4, 1 mM DTT, 1 mM EDTA, and 0.1% NP‐40) for 15 min at room temperature. Then 0–3 µM of peptides (Pep #5, Pep #8, Pep #5‐1, Pep #5‐2, and Pep #5‐2C) were added to the DNA‐protein mixture, and the mixtures were incubated for 15 min at room temperature (peptide sequences are listed in Table S3, Supporting Information). For IP, precleared extracts were incubated overnight at 4 °C with 1 µg of the following primary antibodies (CP2c, CP2b, and PIAS1). […] The radioactivity of the eluted probe was measured by scintillation counting.

Compound | pIC50 [1] | inhibition of erythroid differentiation [2] | sensitization by combined treatment [3] | inhibition of DNA binding activity of CP2c [4]
CC(=O)N[C@@H](CC(N)=O)C(=O)N[C@@H](Cc1ccc(O)cc1)C(=O)N1CCC[C@H]1C(=O)N[C@@H](CCC(N)=O)C(=O)N[C@@H](CCCNC(=N)N)C(=O)N1CCC[C@H]1C(=O)N[C@@H](CS)C(=O)N[C@@H](CCCNC(=N)N)C(=O)NCC(=O)N[C@@H](CC(=O)O)C(=O)N[C@@H](CCCCN)C(=O)NCC(=O)N1CCC[C@H]1C(=O)N[C@@H](CC(=O)O)C(=O)N[C@@H](CS)C(N)=O [ACP52C] (Ac-NYPQRPCRGDKGPDC-NH2) | 4.40 to 4.46 | inhibition of erythroid differentiation | sensitized ACP52C‐resistant cancer cell lines | –
CCOc1ccccc1C1CC(=O)Nc2cc3c(cc21)OCO3 (centres unmarked) [FQI1, Factor Quinolinone Inhibitor 1, reference compound] | – | limited inhibitory effects on MEL cell differentiation in vitro | – | proficient inhibition of DNA binding
